According to patent US4507320A:
Like-named read-outs stand apart in the source and are kept apart here.

Columns and labels:
[1] = test system: adenylate cyclase in the caudate nucleus; details: compared with dopamine; cited from earlier work
alpha2 = assay: alpha2-agonist activity in isolated guinea pig atrial tissue
alpha1 = assay: alpha1-agonist activity in superfused rabbit ear artery segment; details: read-out: EC50-α1, acid addition salt form
Experimental: (§1) The procedure measures the ability of the test compound to inhibit the constrictor response of isolated perfused rabbit ear artery caused by field stimulation of its adrenergic nerve terminals. Activity in this test is, then, compared with undesired alpha1 -agonist activity which is determined in the superfused rabbit ear artery segment.

[2] = molecular target: T1, presynaptic dopaminergic (DA2) receptor (Oryctolagus cuniculus, UniProt G1T1Q0); assay: stimulation-evoked 3H-norepinephrine release from prelabelled rabbit ear artery (DA2)
[3] = test system: presynaptic dopaminergic (DA2) receptor; details: for vasoconstriction observed during the tests (alpha1-mediated): rabbit ear artery, Compound B at 300 nM in the effector response test
Experimental: as §1

[4] = molecular target: T1, presynaptic dopaminergic (DA2) receptor
Experimental: as §1

T1 sequence (G1T1Q0 1-443): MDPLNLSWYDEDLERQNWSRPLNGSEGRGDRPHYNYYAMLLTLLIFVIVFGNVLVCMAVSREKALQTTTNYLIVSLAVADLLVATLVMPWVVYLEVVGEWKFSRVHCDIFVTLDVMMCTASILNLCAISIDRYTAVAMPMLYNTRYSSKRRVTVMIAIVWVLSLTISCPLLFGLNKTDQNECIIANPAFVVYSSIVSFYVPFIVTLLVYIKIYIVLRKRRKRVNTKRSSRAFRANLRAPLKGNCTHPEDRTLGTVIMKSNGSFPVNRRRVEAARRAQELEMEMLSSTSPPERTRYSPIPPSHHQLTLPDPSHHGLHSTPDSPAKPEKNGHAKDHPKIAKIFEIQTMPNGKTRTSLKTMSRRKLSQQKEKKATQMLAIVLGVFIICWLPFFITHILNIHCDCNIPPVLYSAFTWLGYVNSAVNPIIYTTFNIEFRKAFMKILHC

Compound: CS(=O)(=O)Nc1cc(CCN)ccc1O [3-methylsulfonamido analogue of dopamine]
- agonist activity for adenylate cyclase [1]: weaker than was dopamine itself

Compound: CCCN(CCC)CCc1ccc(O)c(NS(C)(=O)=O)c1 [Compound A]
- alpha2-agonist activity (alpha2): no alpha2 -agonist activity
- EC50 (alpha1): 0.76 µM
- EC50 [2]: 0.01 µM
- selectivity for peripheral DA2 receptor sites over alpha1 ([3]; from DA2 EC50 vs alpha1 EC50): high selectivity for the desired peripheral DA2 receptor sites
- vasoconstriction observed during the tests (alpha1-mediated) [3]: No alpha1 -mediated vasoconstriction was observed
- EC50 [4]: 0.002 µM

Compound: CS(=O)(=O)Nc1cc(CCN)ccc1O [Compound B]
- alpha2-agonist activity (alpha2): significant α2 -activity
- EC50 (alpha1): 0.355 µM
- EC50 [2]: 3 µM
- vasoconstriction observed during the tests (alpha1-mediated) [3]: vasoconstriction was observed
- EC50 [4]: > 0.3 µM

Compound: CNCCc1ccc(O)c(NS(C)(=O)=O)c1 [Compound C]
- alpha2-agonist activity (alpha2): significant α2 -activity
- EC50 (alpha1): 0.025 µM
- EC50 [2]: 0.3 µM
- vasoconstriction observed during the tests (alpha1-mediated) [3]: demonstrates vasoconstriction as a result of alpha1 -agonist activity
- EC50 [4]: > 0.03 µM

Compound: CC(C)NCCc1ccc(O)c(NS(C)(=O)=O)c1 [D]
- EC50 (alpha1): 2 µM
- EC50 [4]: > 1 µM

Compound: CCCN(CCC)CCc1ccc(O)c(NS(=O)(=O)C(F)(F)F)c1 [E]
- EC50 [4]: > 1 µM

Compound: CCCN(CCC)CCc1cccc(NS(C)(=O)=O)c1 [F]
- EC50 [4]: 0.4 µM

Compound: CS(=O)(=O)Nc1cccc(CCN)c1 [G]
- EC50 [4]: > 1 µM
